Laboratory results as given in patent US12673975B2, “Cyclic peptide, cell scaffold material, cell separating material, and medium” (FUJIFILM Corporation, priority 2019, dated 2026).
Starred links: 1 amine or outer side, 2 acyl side, 3 side chain; linkers in the order of their positions; H or OH if unused. Positions of bridges follow the written chain, without caps; N, C: chain ends. Non-standard residues stand in square brackets, D forms with d. Residues, ends and D or L forms follow the SMILES beside them. Pen = CC(C)(S)[C@H](N)C(=O)O; hCys = N[C@@H](CCS)C(=O)O; Orn = NCCC[C@H](N)C(=O)O; Dab = NCC[C@H](N)C(=O)O; Dap = NC[C@H](N)C(=O)O; X1 = O=C(C[*:2])[*:1]; X2 = O=C(C[*:1])[*:2]

Key:
human integrin αvβ5 = human integrin αvβ5 (Homo sapiens, UniProt P06756+P18084); assay: Evaluation of integrin binding property (surface plasmon resonance, Biacore 3000, immobilized cyclic peptide); conditions: surface plasmon resonance, immobilized cyclic peptide, human integrin αvβ5; read-out: Binding activity (integrin binding property, dissociation constant rank)
Chain of human integrin αvβ5 (P06756 31-1048): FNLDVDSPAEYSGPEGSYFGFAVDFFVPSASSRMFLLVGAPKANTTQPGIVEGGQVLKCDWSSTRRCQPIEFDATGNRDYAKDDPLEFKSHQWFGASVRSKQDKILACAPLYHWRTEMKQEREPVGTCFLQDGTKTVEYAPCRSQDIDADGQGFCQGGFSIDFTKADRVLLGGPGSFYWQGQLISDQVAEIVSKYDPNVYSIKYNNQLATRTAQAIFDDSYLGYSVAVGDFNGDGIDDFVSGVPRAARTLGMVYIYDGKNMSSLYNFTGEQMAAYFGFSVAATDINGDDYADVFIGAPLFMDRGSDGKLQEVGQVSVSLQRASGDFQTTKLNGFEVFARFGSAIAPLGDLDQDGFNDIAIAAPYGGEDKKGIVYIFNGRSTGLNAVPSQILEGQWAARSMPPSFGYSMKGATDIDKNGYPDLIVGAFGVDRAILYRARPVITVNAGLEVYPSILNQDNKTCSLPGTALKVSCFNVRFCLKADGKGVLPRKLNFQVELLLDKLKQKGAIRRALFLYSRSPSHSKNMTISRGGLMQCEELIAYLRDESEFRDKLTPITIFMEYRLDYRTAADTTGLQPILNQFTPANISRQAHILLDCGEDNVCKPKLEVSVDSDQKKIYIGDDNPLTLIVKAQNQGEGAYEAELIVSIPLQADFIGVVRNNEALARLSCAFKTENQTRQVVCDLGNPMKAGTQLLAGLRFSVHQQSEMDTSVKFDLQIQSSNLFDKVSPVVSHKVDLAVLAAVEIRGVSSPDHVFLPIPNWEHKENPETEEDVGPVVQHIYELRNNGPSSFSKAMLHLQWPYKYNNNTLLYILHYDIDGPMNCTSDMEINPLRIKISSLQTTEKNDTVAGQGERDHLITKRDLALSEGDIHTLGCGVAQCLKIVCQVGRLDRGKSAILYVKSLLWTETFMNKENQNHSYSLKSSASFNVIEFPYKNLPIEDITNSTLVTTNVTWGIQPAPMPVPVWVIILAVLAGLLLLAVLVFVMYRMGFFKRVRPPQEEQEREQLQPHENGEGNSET
Chain of human integrin αvβ5 (P18084 24-799): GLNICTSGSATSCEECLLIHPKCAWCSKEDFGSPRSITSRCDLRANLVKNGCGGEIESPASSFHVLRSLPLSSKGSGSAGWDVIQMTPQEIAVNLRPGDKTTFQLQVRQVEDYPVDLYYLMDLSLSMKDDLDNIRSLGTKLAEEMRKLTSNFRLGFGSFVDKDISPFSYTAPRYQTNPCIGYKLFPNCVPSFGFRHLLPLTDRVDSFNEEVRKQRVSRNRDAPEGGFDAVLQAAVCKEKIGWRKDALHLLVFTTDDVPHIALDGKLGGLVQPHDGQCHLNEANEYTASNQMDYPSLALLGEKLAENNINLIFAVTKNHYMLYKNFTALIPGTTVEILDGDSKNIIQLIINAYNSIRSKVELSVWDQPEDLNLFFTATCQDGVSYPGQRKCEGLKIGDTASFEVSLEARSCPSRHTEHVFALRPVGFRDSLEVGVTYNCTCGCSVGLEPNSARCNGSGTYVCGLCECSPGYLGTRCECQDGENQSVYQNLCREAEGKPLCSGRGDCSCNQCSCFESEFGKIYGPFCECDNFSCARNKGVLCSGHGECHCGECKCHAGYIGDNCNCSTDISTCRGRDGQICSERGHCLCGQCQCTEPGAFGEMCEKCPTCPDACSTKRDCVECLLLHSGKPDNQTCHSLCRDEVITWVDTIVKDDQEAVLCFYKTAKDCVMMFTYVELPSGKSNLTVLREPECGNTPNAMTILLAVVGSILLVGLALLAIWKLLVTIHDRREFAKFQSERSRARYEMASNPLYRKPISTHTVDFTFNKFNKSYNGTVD
Procedure, shortened: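 Human αvβ5 (30-1,000 nM) flowed for 10 min at 25 °C over immobilized cyclic peptide in 20 mM HEPES, 150 mM NaCl, 5 mM MgCl2, pH 7.4, followed by 30 min running buffer and 0.5 M EDTA regeneration. Dissociation constant from peptide minus unimmobilized channel, scored into standard grades.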

[1] = Evaluation of molecule stability (alkali treatment, residual rate by LC/MS); format: physicochemical; conditions: alkali treatment, residual rate by LC/MS
Procedure, shortened: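 Stability read as percent of summed LC/MS peak area remaining versus untreated peptide (C18, 45 °C, 10 mM ammonium formate pH 3, ESI positive/negative). Treatment: 500 μM peptide in water plus an equivalent of 1 M NaOH, 15 °C for 3 hours.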

Row | SMILES | Kd (human integrin αvβ5) [nM] | Stability (molecule stability, residual rate of the cyclic peptide rank) [1]
1 | CC(C)[C@@H]1NC(=O)[C@@H](NC(=O)[C@H](C)NC(=O)[C@H](CCCCN)NC(=O)[C@H](CCCCN)NC(=O)[C@@H](N)CCCCN)CCNC(=O)CSCC[C@@H](C(=O)N[C@@H](C)C(=O)O)NC(=O)[C@H](C)NC(=O)[C@H](Cc2ccccc2)NC(=O)[C@H]([C@@H](C)O)NC(=O)[C@H](CC(=O)O)NC(=O)CNC(=O)[C@H](CCCNC(=N)N)NC(=O)[C@@H]2CCCN2C1=O [Cyclic peptide 122, KKKA(Dab(acetyl))VPRGDTFA-(Hcy)-A] (H-KKKA[Dab]VPRGDTFA[hCys]A-OH; linker 5-14 via X1) | < 50 | A (The residual rate of the cyclic peptide is 70% or more.)
2 | CC[C@H](C)[C@@H]1NC(=O)[C@@H](NC(=O)[C@H](C)NC(=O)[C@H](CCCCN)NC(=O)[C@H](CCCCN)NC(=O)[C@@H](N)CCCCN)CCSCC(=O)NCCCC[C@@H](C(=O)N[C@@H](C)C(=O)O)NC(=O)[C@H](C)NC(=O)[C@H](Cc2ccccc2)NC(=O)[C@H](CO)NC(=O)[C@H](CC(=O)O)NC(=O)CNC(=O)[C@H](CCCNC(=N)N)NC(=O)[C@@H]2CCCN2C1=O [Cyclic peptide 123, KKKA-(Hcy)-IPRGDSFA(Lys(acetyl))A] (H-KKKA[hCys]IPRGDSFAKA-OH; linker 5-14 via X2) | < 50 | A (The residual rate of the cyclic peptide is 70% or more.)
3 | CC[C@H](C)[C@@H]1NC(=O)[C@@H](NC(=O)[C@H](C)NC(=O)[C@H](CCCCN)NC(=O)[C@H](CCCCN)NC(=O)[C@@H](N)CCCCN)CCNC(=O)CSCC[C@@H](C(=O)N[C@@H](C)C(=O)O)NC(=O)[C@H](C)NC(=O)[C@H](Cc2ccccc2)NC(=O)[C@H](CO)NC(=O)[C@H](CC(=O)O)NC(=O)CNC(=O)[C@H](CCCNC(=N)N)NC(=O)[C@@H]2CCCN2C1=O [Cyclic peptide 124, KKKA(Dab(acetyl))IPRGDSFA-(Hcy)-A] (H-KKKA[Dab]IPRGDSFA[hCys]A-OH; linker 5-14 via X1) | 50 to 100 | A (The residual rate of the cyclic peptide is 70% or more.)
4 | CC(C)[C@@H]1NC(=O)[C@@H](NC(=O)[C@H](C)N)CCSCC(=O)NCC[C@@H](C(=O)N[C@@H](C)C(=O)O)NC(=O)[C@H](C)NC(=O)[C@H](Cc2ccccc2)NC(=O)[C@H]([C@@H](C)O)NC(=O)[C@H](CC(=O)O)NC(=O)CNC(=O)[C@H](CCCNC(=N)N)NC(=O)[C@@H]2CCCN2C1=O [Cyclic peptide 125, A-(Hcy)-VPRGDTFA(Dab(acetyl))A] (H-A[hCys]VPRGDTFA[Dab]A-OH; linker 2-11 via X2) | < 50 | A (The residual rate of the cyclic peptide is 70% or more.)
5 | CC[C@H](C)[C@@H]1NC(=O)[C@@H](NC(=O)[C@H](C)N)CCSCC(=O)NCC[C@@H](C(=O)N[C@@H](C)C(=O)O)NC(=O)[C@H](C)NC(=O)[C@H](Cc2ccccc2)NC(=O)[C@H](CO)NC(=O)[C@H](CC(=O)O)NC(=O)CNC(=O)[C@H](CCCNC(=N)N)NC(=O)[C@@H]2CCCN2C1=O [Cyclic peptide 126, A-(Hcy)-IPRGDSFA(Dab(acetyl))A] (H-A[hCys]IPRGDSFA[Dab]A-OH; linker 2-11 via X2) | < 50 | A (The residual rate of the cyclic peptide is 70% or more.)
6 | CC[C@H](C)[C@@H]1NC(=O)[C@@H](NC(=O)[C@H](C)N)CCSCC(=O)NCC[C@@H](C(=O)NCC(=O)O)NC(=O)[C@H](C)NC(=O)[C@H](Cc2ccccc2)NC(=O)[C@H](CO)NC(=O)[C@H](CC(=O)O)NC(=O)CNC(=O)[C@H](CCCNC(=N)N)NC(=O)[C@@H]2CCCN2C1=O [Cyclic peptide 127, A-(Hcy)-IPRGDSFA(Dab(acetyl))G] (H-A[hCys]IPRGDSFA[Dab]G-OH; linker 2-11 via X2) | < 50 | A (The residual rate of the cyclic peptide is 70% or more.)
7 | CC[C@H](C)[C@@H]1NC(=O)[C@@H](NC(=O)CNC(=O)[C@H](CCCCN)NC(=O)[C@H](CCCCN)NC(=O)[C@@H](N)CCCCN)C(C)(C)SCC(=O)NC[C@@H](C(=O)N[C@@H](C)C(=O)O)NC(=O)[C@H](CCCNC(=N)N)NC(=O)[C@H](Cc2ccccc2)NC(=O)[C@H]([C@@H](C)O)NC(=O)[C@H](CC(=O)O)NC(=O)CNC(=O)[C@H](CCCNC(=N)N)NC(=O)[C@@H]2CCCN2C1=O [Cyclic peptide 128, KKKG-(Pen)-IPRGDTFR(Dap(acetyl))A] (H-KKKG[Pen]IPRGDTFR[Dap]A-OH; linker 5-14 via X2) | < 50 | B (The residual rate of the cyclic peptide is 50% or more and less than 70%.)
8 | CC[C@H](C)[C@@H]1NC(=O)[C@@H](NC(=O)CNC(=O)[C@H](CCCCN)NC(=O)[C@H](CCCCN)NC(=O)[C@@H](N)CCCCN)C(C)(C)SCC(=O)NCC[C@@H](C(=O)N[C@@H](C)C(=O)O)NC(=O)[C@H](CCCNC(=N)N)NC(=O)[C@H](Cc2ccccc2)NC(=O)[C@H]([C@@H](C)O)NC(=O)[C@H](CC(=O)O)NC(=O)CNC(=O)[C@H](CCCNC(=N)N)NC(=O)[C@@H]2CCCN2C1=O [Cyclic peptide 129, KKKG-(Pen)-IPRGDTFR(Dab(acetyl))A] (H-KKKG[Pen]IPRGDTFR[Dab]A-OH; linker 5-14 via X2) | 50 to 100 | A (The residual rate of the cyclic peptide is 70% or more.)
9 | CC[C@H](C)[C@@H]1NC(=O)[C@@H](NC(=O)CNC(=O)[C@H](CCCCN)NC(=O)[C@H](CCCCN)NC(=O)[C@@H](N)CCCCN)C(C)(C)SCC(=O)NCCC[C@@H](C(=O)N[C@@H](C)C(=O)O)NC(=O)[C@H](CCCNC(=N)N)NC(=O)[C@H](Cc2ccccc2)NC(=O)[C@H]([C@@H](C)O)NC(=O)[C@H](CC(=O)O)NC(=O)CNC(=O)[C@H](CCCNC(=N)N)NC(=O)[C@@H]2CCCN2C1=O [Cyclic peptide 130, KKKG-(Pen)-IPRGDTFR(Orn(acetyl))A] (H-KKKG[Pen]IPRGDTFR[Orn]A-OH; linker 5-14 via X2) | < 50 | A (The residual rate of the cyclic peptide is 70% or more.)
10 | CC[C@H](C)[C@@H]1NC(=O)[C@@H](NC(=O)CNC(=O)[C@H](CCCCN)NC(=O)[C@H](CCCCN)NC(=O)[C@@H](N)CCCCN)C(C)(C)SCC(=O)NCCCC[C@@H](C(=O)N[C@@H](C)C(=O)O)NC(=O)[C@H](CCCNC(=N)N)NC(=O)[C@H](Cc2ccccc2)NC(=O)[C@H]([C@@H](C)O)NC(=O)[C@H](CC(=O)O)NC(=O)CNC(=O)[C@H](CCCNC(=N)N)NC(=O)[C@@H]2CCCN2C1=O [Cyclic peptide 131, KKKG-(Pen)-IPRGDTFR(Lys(acetyl))A] (H-KKKG[Pen]IPRGDTFRKA-OH; linker 5-14 via X2) | 50 to 100 | A (The residual rate of the cyclic peptide is 70% or more.)
11 | CC[C@H](C)[C@@H]1NC(=O)[C@@H](NC(=O)CNC(=O)[C@H](CCCCN)NC(=O)[C@H](CCCCN)NC(=O)[C@@H](N)CCCCN)CNC(=O)CSC(C)(C)[C@@H](C(=O)N[C@@H](C)C(=O)O)NC(=O)[C@H](CCCNC(=N)N)NC(=O)[C@H](Cc2ccccc2)NC(=O)[C@H]([C@@H](C)O)NC(=O)[C@H](CC(=O)O)NC(=O)CNC(=O)[C@H](CCCNC(=N)N)NC(=O)[C@@H]2CCCN2C1=O [Cyclic peptide 132, KKKG(Dap(acetyl))IPRGDTFR-(Pen)-A] (H-KKKG[Dap]IPRGDTFR[Pen]A-OH; linker 5-14 via X1) | < 50 | A (The residual rate of the cyclic peptide is 70% or more.)
12 | CC[C@H](C)[C@@H]1NC(=O)[C@@H](NC(=O)CNC(=O)[C@H](CCCCN)NC(=O)[C@H](CCCCN)NC(=O)[C@@H](N)CCCCN)CCNC(=O)CSC(C)(C)[C@@H](C(=O)N[C@@H](C)C(=O)O)NC(=O)[C@H](CCCNC(=N)N)NC(=O)[C@H](Cc2ccccc2)NC(=O)[C@H]([C@@H](C)O)NC(=O)[C@H](CC(=O)O)NC(=O)CNC(=O)[C@H](CCCNC(=N)N)NC(=O)[C@@H]2CCCN2C1=O [Cyclic peptide 133, KKKG(Dab(acetyl))IPRGDTFR-(Pen)-A] (H-KKKG[Dab]IPRGDTFR[Pen]A-OH; linker 5-14 via X1) | 50 to 100 | A (The residual rate of the cyclic peptide is 70% or more.)
13 | CC[C@H](C)[C@@H]1NC(=O)[C@@H](NC(=O)CNC(=O)[C@H](CCCCN)NC(=O)[C@H](CCCCN)NC(=O)[C@@H](N)CCCCN)CCCNC(=O)CSC(C)(C)[C@@H](C(=O)N[C@@H](C)C(=O)O)NC(=O)[C@H](CCCNC(=N)N)NC(=O)[C@H](Cc2ccccc2)NC(=O)[C@H]([C@@H](C)O)NC(=O)[C@H](CC(=O)O)NC(=O)CNC(=O)[C@H](CCCNC(=N)N)NC(=O)[C@@H]2CCCN2C1=O [Cyclic peptide 134, KKKG(Orn(acetyl))IPRGDTFR-(Pen)-A] (H-KKKG[Orn]IPRGDTFR[Pen]A-OH; linker 5-14 via X1) | < 50 | A (The residual rate of the cyclic peptide is 70% or more.)
14 | CC[C@H](C)[C@@H]1NC(=O)[C@@H](NC(=O)CNC(=O)[C@H](CCCCN)NC(=O)[C@H](CCCCN)NC(=O)[C@@H](N)CCCCN)CCCCNC(=O)CSC(C)(C)[C@@H](C(=O)N[C@@H](C)C(=O)O)NC(=O)[C@H](CCCNC(=N)N)NC(=O)[C@H](Cc2ccccc2)NC(=O)[C@H]([C@@H](C)O)NC(=O)[C@H](CC(=O)O)NC(=O)CNC(=O)[C@H](CCCNC(=N)N)NC(=O)[C@@H]2CCCN2C1=O [Cyclic peptide 135, KKKG(Lys(acetyl))IPRGDTFR-(Pen)-A] (H-KKKGKIPRGDTFR[Pen]A-OH; linker 5-14 via X1) | 50 to 100 | A (The residual rate of the cyclic peptide is 70% or more.)
